Molecules are shown by their SMILES.

In the experiment the test system is production of TNF-alpha in RAW 264.7 cells. The experiment is described as follows: Inhibition of TNF-alpha production in LPS-treated RAW 264.7 cells, ELISA of culture supernatant. The conditions noted are these: Mus musculus, RAW264.7, Table 23, LPS 0.3 μg/ml, 24 hours, compounds up to 10 μM, IC50 unit inferred. It is filed as cell-based, mouse. How it is done: To test the inhibiting activity of the compounds prepared from above Examples on the production of TNF-alpha, the concentration of TNF-alpha in the cell supernatant was measured.
Each 200 μl of RAW 264.7 cells (ATCC, USA), a mouse macrophage cell line was seeded onto each well of 96-well microtiter plate (Nunc, Sweden) to the concentration ranging from 1×10^6 cells/ml to 5×10^6 cells/ml, and incubated in DMEM (Dulbeco's modified eagles medium) media containing 5% FBS (fetal bovine serum) at 37° C. in 5% CO2 incubator.
Various concentrations of the compounds of the present invention ranging from […] to 10 μM and LPS (Sigma, USA) in the final concentration of 0.3 μg/ml were treated to activated cell simultaneously. The treated cells were cultured at 37° C. for 24 hours in 5% CO2 incubator and the cultured cells were collected after the cultivation
And then the concentration of TNF-alpha secreted from the culture supernatant of RAW 264.7 cells was determined by ELISA according to the manufacture's instruction (R&D Systems, Minneapolis, Minn.).
The result was shown in Table 23 (AA: IC50's<1, A: IC50's<5, B: IC50's<10, C: IC50's>10).
In general terms: An ELISA detects its analyte on a solid surface through an enzyme-linked reagent.
In turn, `CN1CC=C(CCC(=O)NO)C1=O` [Example 50, N-hydroxy-3-(1-methyl-2-oxo-2,5-dihydro-1H-pyrrol-3-yl)-propionamide] yielded a concentration for half-maximal inhibition (IC50) above 10 µM. With `C=CCN1CC=C(CCC(=O)NO)C1=O` [Example 51, 3-(1-allyl-2-oxo-2,5-dihydro-1H-pyrrol-3-yl)-N-hydroxy-propionamide] the figure was above 10 µM; with `O=C(CCC1=CCN(CCc2cccc3ccccc23)C1=O)NO` [Example 52, N-hydroxy-3-[1-(2-naphthalene-1-yl-ethyl)-2-oxo-2,5-dihydro-1H-pyrrol-3-yl]-propionamide], below 5 µM; with `O=C(CCC1=CCN(CCc2ccc3ccccc3c2)C1=O)NO` [Example 53, N-hydroxy-3-[1-(2-naphthalene-2-yl-ethyl)-2-oxo-2,5-dihydro-1H-pyrrol-3-yl]-propionamide], below 1 µM. Regarding `O=C(CCC1=CCN(CCc2cccs2)C1=O)NO` [Example 54, N-hydroxy-3-[2-oxo-1-(2-thiophen-2-yl-ethyl)-2,5-dihydro-1H-pyrrol-3-yl]-propionamide], the half-inhibitory concentration (IC50) is below 5 µM. `O=C(CCC1=CCN(CCCc2ccc(-c3ccccc3)cc2)C1=O)NO` [Example 55, 3-[1-(3-biphenyl-4-yl-propyl)-2-oxo-2,5-dihydro-1H-pyrrol-3-yl]-N-hydroxy-propionamide] registered an IC50 below 5 µM. With `COc1ccc(CN2CCC=C(CCC(=O)NO)C2=O)c(OC)c1` [Example 57, 3-[1-(2,4-Dimethoxybenzyl)-2-oxo-1,2,5,6-tetrahydropyridin-3-yl]N-hydroxypropionamide] the figure was below 10 µM; with `O=C(CCC1=CCCN(Cc2ccccc2)C1=O)NO` [Example 58, N-hydroxy-3-(1-benzyl-2-oxo-1,2,5,6-tetrahydro-pyridin-3-yl)-propionic acid], below 5 µM; with `O=C(CCC1=CCCN(Cc2ccc([N+](=O)[O-])cc2)C1=O)NO` [Example 59, N-hydroxy-3-[1-(4-nitro-benzyl)-2-oxo-1,2,5,6-tetrahydro-pyridin-3-yl)-propionamide], below 5 µM. With `O=C(CCC1=CCCN(CCc2ccccc2)C1=O)NO` [Example 60] the figure was below 5 µM; with `COc1ccc(CN2CCC=C(CCC(=O)O)C2=O)c(OC)c1` [Example 63, 3-[1-(2,4-dimethoxybenzyl)-2-oxo-1,2,5,6-tetrahydro-pyridin-3-yl]-propionic acid], above 10 µM. For `O=C(O)CCC1=CCCN(Cc2ccccc2)C1=O` [Example 64, 3-(1-benzyl-2-oxo-1,2,5,6-tetrahydro-pyridin-3-yl)-propionic acid], the 50% inhibitory concentration (IC50) is above 10 µM. On to `O=C(O)CCC1=CCCN(Cc2ccc([N+](=O)[O-])cc2)C1=O` [Example 65, 3-[1-(4-nitro-benzyl)-2-oxo-1,2,5,6-tetrahydro-pyridin-3-yl)-propionic acid], for which the IC50 is above 10 µM. With `CC(=O)Nc1ccc(CN2CCC=C(CCC(=O)NO)C2=O)cc1` [Example 74, 3-[1-(4-acetylamino-benzyl)-2-oxo-1,2,5,6-tetrahydro-pyridin-3-yl]-N-hydroxy-propionamide], the half-inhibitory concentration (IC50) is above 10 µM. Molecule `O=C(CCC1=CCCN(Cc2ccc(NC(=O)c3ccccc3)cc2)C1=O)NO` [Example 75, N-4-[5-(2-hydroxycarbamoyl-ethyl)-6-oxo-3,6-dihydro-2-pyridin-1-yl-methyl]-phenyl-benzamide] displayed an IC50 above 10 µM. Molecule `CS(=O)(=O)N(c1ccc(CN2CCC=C(CCC(=O)NO)C2=O)cc1)S(C)(=O)=O` [Example 76, N-hydroxy-3-[1-(4-dimethylsulfonylamino-benzyl)-2-oxo-1,2,5,6-tetrahydro-pyridin-3-yl]-propionamide] came in with an IC50 above 10 µM. In turn, `CC(=O)Nc1ccc(CN2CCC=C(CCC(=O)O)C2=O)cc1` [Example 78, 3-[1-(4-acetylamino-benzyl)-2-oxo-1,2,5,6-tetrahydro-pyridin-3-yl]-propionic acid] displayed an IC50 below 5 µM. With `O=C(O)CCC1=CCCN(Cc2ccc(NC(=O)c3ccccc3)cc2)C1=O` [Example 79, 3-[1-(4-benzoylamino-benzyl)-2-oxo-1,2,5,6-tetrahydro-pyridin-3-yl]-propionic acid] the figure was below 5 µM.

`Cc1ccc(S(=O)(=O)Nc2ccc(CN3CCC=C(CCC(=O)O)C3=O)cc2)cc1` [Example 80] displayed a concentration for half-maximal inhibition (IC50) below 1 µM.

As for `O=C(CCC1CCCN(CCc2ccccc2)C1=O)NO` (centres unmarked) [Example 81, N-hydroxy-3-(2-oxo-1-phenethyl-piperidine-3-yl)-propionamide], the 50% inhibitory concentration (IC50) was below 5 µM. `COc1ccc(CN2CCC=C(CC(=O)NO)C2=O)c(OC)c1` [Example 82, 2-[1-(2,4-dimethoxy-benzyl)-2-oxo-1,2,5,6-tetrahydro-pyridin-3-yl]-N-hydroxy-acetamide]: the half-maximal inhibitory concentration (IC50) was below 5 µM. For `O=C(CC1=CCCN(Cc2ccccc2)C1=O)NO` [Example 83, 2-(1-benzyl-2-oxo-1,2,5,6-tetrahydro-pyridin-3-yl)-N-hydroxy-acetamide], the IC50 is below 5 µM. Take `O=C(CC1=CCCN(Cc2ccc([N+](=O)[O-])cc2)C1=O)NO` [Example 84, N-hydroxy-2-[1-(4-nitro-benzyl)-2-oxo-1,2,5,6-tetrahydro-pyridin-3-yl)-N-hydroxy-acetamide]: the half-inhibitory concentration (IC50) is below 5 µM.

For the molecule `O=C(CC1=CCCN(CCCc2ccccc2)C1=O)NO` [Example 85, N-hydroxy-2-[2-oxo-1-(3-phenyl-propyl)-1,2,5,6-tetrahydro-pyridin-3-yl]-N-hydroxy-acetamide], the half-maximal inhibitory concentration (IC50) was below 10 µM. On to `O=C(CC1=CCCN(CCCCc2ccccc2)C1=O)NO` [Example 86, N-hydroxy-2-[2-oxo-1-(4-phenyl-butyl)-1,2,5,6-tetrahydro-pyridin-3-yl]-N-hydroxy-acetamide], for which the IC50 was below 5 µM.

`COc1ccc(CN2CCC=C(CC(=O)O)C2=O)c(OC)c1` [Example 87, [1-(2,4-dimethoxy-benzyl)-2-oxo-1,2,5,6-tetrahydro-pyridin-3-yl]-acetic acid]: the IC50 is below 1 µM. `O=C(O)CC1=CCCN(Cc2ccccc2)C1=O` [Example 88, (1-benzyl-2-oxo-1,2,5,6-tetrahydro-pyridin-3-yl)-acetic acid] returned an IC50 below 1 µM.

As to `O=C(O)CC1=CCCN(CCc2ccccc2)C1=O` [Example 89, (2-oxo-1-phenethyl-1,2,5,6-tetrahydro-pyridin-3-yl)-acetic acid], the IC50 was below 5 µM.

`O=C(O)CC1=CCCN(CCCCc2ccccc2)C1=O` [Example 91, [2-oxo-1-(4-phenyl-butyl)-1,2,5,6-tetrahydro-pyridin-3-yl)-acetic acid] came in with an IC50 below 10 µM.

Consider `COc1ccc(CN2CCCC(CC(=O)NO)C2=O)c(OC)c1` (centres unmarked) [Example 92, 2-[1-(2,4-dimethoxy-benzyl)-2-oxopiperidine-3-yl]-N-hydroxy-acetamide], for which the IC50 is below 5 µM.

`O=C(CC1CCCN(CCc2ccccc2)C1=O)NO` (centres unmarked) [Example 93, (2-oxo-1-phenethyl-piperidine-3-yl)-N-hydroxy-acetamide] registered an IC50 below 5 µM. With `COc1ccc(CN2CCC=C(CCCC(=O)NO)C2=O)cc1` [Example 95, 4-[1-(4-methoxy-benzyl)-2-oxo-1,2,5,6-tetrahydro-pyridin-3-yl]-N-hydroxy-butylamide] the figure was below 5 µM. As for `O=C(CCCC1=CCCN(CCc2ccccc2)C1=O)NO` [Example 96, 4-(1-phenethyl-2-oxo-1,2,5,6-tetrahydro-pyridin-3-yl)-N-hydroxy-butylamide], the 50% inhibitory concentration (IC50) was below 5 µM. Next, `O=C(CCCC1=CCCN(CCCc2ccccc2)C1=O)NO` [Example 97, N-hydroxy-4-[2-oxo-1-(3-phenyl-propyl)-1,2,5,6-tetrahydro-pyridin-3-yl]-butylamide]: below 5 µM; `O=C(CCCC1=CCCN(CCCCc2ccccc2)C1=O)NO` [Example 98]: below 5 µM; `O=C(O)CCC1=CCCNC1=O` [Example 99, 3-(2-oxo-1,2,5,6-tetrahydro-pyridin-3-yl)-propionic acid]: below 10 µM.

The molecule `O=C(CCC1=CCCNC1=O)NOCc1ccccc1` [Example 100, N-Benzyloxy-3-(2-oxo-1,2,5,6-tetrahydro-pyridin-3-yl)-propionamide] yielded a 50% inhibitory concentration (IC50) below 5 µM. In turn, `C=CCN1CCC=C(CCC(=O)NO)C1=O` [Example 101, 3-(1-Allyl-2-oxo-1,2,5,6-tetrahydro-pyridin-3-yl)-N-hydroxy-propionamide] had an IC50 below 1 µM. With `CN1CCC=C(CCC(=O)NO)C1=O` [Example 102, N-hydroxy-3-(1-methyl-2-oxo-1,2,5,6-tetrahydro-pyridin-3-yl)-propionamide] the figure was below 1 µM; with `O=C(CCC1=CCCN(Cc2ccc3ccccc3c2)C1=O)NO` [Example 103, N-hydroxy-3-(1-(naphthalene-2-yl-methyl)-2-oxo-1,2,5,6-tetrahydro-pyridin-3-yl)-propionamide], below 5 µM; with `O=C(CCC1=CCCN(CCc2cccs2)C1=O)NO` [Example 104, N-hydroxy-3-[2-oxo-1-(2-thiophen-2-yl-ethyl)-1,2,5,6-tetrahydro-pyridin-3-yl]-propionamide], above 10 µM.

As a reminder, the IC50 is the concentration needed to halve the response being measured.

These data come from US7846963B2, “2-oxo-heterocyclic compounds and the pharmaceutical compositions comprising the same” (Korea Research Institute of Bioscience and Biotechnology, priority 2003, dated 2010).
